Measured values as given in PubChem BioAssay AID548 (The Scripps Research Institute Molecular Screening Center, 2006).
pIC50: −log10 of the molar value. Activity calls are given as the source filed them. How the calls were made is not given here.

Target: cAMP-dependent protein kinase catalytic subunit alpha (Homo sapiens) (UniProt P17612)
Assay: PubChem AID 548
Conditions: Purified PKA, Kemptide, Kinase-Glo ATP luminescence

| Compound | IC50 | pIC50 |
| --- | --- | --- |
| Nc1c(S(=O)(=O)c2cccc(Cl)c2)c2nc3ccccc3nc2n1/N=C/c1ccc(O)c(O)c1 | > 59.6 µM (inactive) | – |
| O/N=C/c1c[nH]c2ccccc12 | – | 4.46 |
